One assay concerns A375 cells. The assay can be described thus: cell viability assay in A375 cells using XTT. In kind it is cell-based. The note with it: Homo sapiens, A-375, 72 h, XTT read three days after compound addition. Here is the method: The cell viability assay in A375 cells is set up in a 96-well plate format using XTT.
XTT is a yellow tetrazolium salt that is cleaved to an orange formazan dye by the mitochondria of metabolically active cells. The procedure allows for rapid determination in a microtitre plate, to give reproducible and sensitive results.
A375 cells are grown in DMEM media containing 10% FBS and 1 mM sodium pyruvate. Cells are trypsinized and seeded at 1000 cells/well. After allowing the cells to adhere overnight, compound is added to the wells at the following final concentrations: 10, 3, 1, 0.3, 0.1, 0.03, 0.01, 0.001, and 0.0001 μM. The assay is set up in triplicates for each concentration. DMSO concentrations are kept at 0.5%/well. Three days after compound addition, the XTT assay is performed. Wells are washed once with PBS. 100 μL of DMEM media without phenol red or FBS is added to each well. A working solution of XTT containing 1 mg/ml XTT and 100 μL of PMS (stock concentration 0.383 mg/ml) per 5 ml is prepared. 50 μL of the working solution of XTT is added to each well. Absorbance of the plate is read at 465 nm using a Spectramax 190 (Molecular Devices). The absorbance from wells with media and XTT alone, but without cells is considered the blank and subtracted from readings from all wells.
Percentage viability is calculated considering the blank subtracted value from wells treated with DMSO alone as 100% viable. GI50 values are calculated using Graphpad Prism, using non-linear regression curve fit for sigmoidal dose response (variable slope).
The cell viability assay is further described in Scudiero, et. al., Cancer Research (1988) 48, 4827-4833; Weislow, et. al., J. Natl. Cancer Institute, (1989) 81, 577-586; and Roehm, et. al., J. Immunol. Methods [1991]142:257-265.
(§1) The compounds of the above Examples were evaluated as inhibitors of the MAP kinase pathway in a BRAF-MEK-ERK enzymatic cascade assay and in the cell viability assay described above.
(Tetrazolium assays rely on reduction of a dye to a coloured formazan, in cell work by metabolically active cells.)

Assay [1] relates to BRAF-MEK-ERK cascade (activated BRAF (V599E), unactive MEK1, unactive MAP Kinase 2/ERK2). The assay is described as follows: BRAF-MEK-ERK enzymatic cascade assay (TR-FRET). In kind it is biochemical, human. The note with it: compounds screened at 10 μM, 45 minutes pre-incubation with enzymes, 100 μM ATP.
Description: A BRAF-MEK-ERK cascade assay is used to evaluate the effects of the compounds as inhibitors of the MAP kinase pathway. An enzymatic cascade assay is set up using recombinant human activated BRAF (V599E) kinase (Cat No. 14-557), human full length unactive MEK1 kinase (Cat No. 14-706) and human full length unactive MAP Kinase 2/ERK2 (Cat No. 14-536) enzymes procured from Upstate. TR-FRET (Time resolved fluorescence resonance energy transfer) detection technology is used for the read out. The assay buffer solution contains 50 mM Tris pH 7.5, 10 mM MgCl2, 1 mM DTT, 0.01% Tween 20, 0.1 nM activated BRAF, 2 nM unactive MEK1, 10 nM unactive ERK2, 100 μM ATP and 500 nM long chain biotin-peptide substrate (LCB-FFKNIVTPRTPPP) in a 384 well format. The kinase reaction is stopped after 90 minutes with 10 mM EDTA and Lance detection mix (2 nM Eu-labeled phospho-serine/threonine antibody (Cat. No. AD0176-Perkin Elmer), 20 nM SA-APC (Cat No. CR130-100-Perkin Elmer) is added. The TR-FRET signal (Excitation at 340 nm, Emission at 615 nm and 665 nm) is read with 50 μs delay time on a Victor3 V fluorimeter. The data is calculated using the ratio of readings at 665 nm to 615 nm. The final concentration of DMSO is 2.5% in the assay. Compounds are screened at 10 μM concentration with pre-incubation of the enzymes in the presence of test compound for 45 minutes.
Each individual IC50 is determined using a 10 point dose response curve generated by GraphPad Prism software Version 4 (San Diego, Calif., USA) using non linear regression curve fit for sigmoidal dose response (variable slope).
These assays described above are fully detailed in Han, Shulin, et. al., Bioorganic & Medicinal Chemistry Letters (2005) 15, 5467-5473, and in Yeh, et. al., Clin Cancer Res (2007) 13 (5), 1576-1583.
as §1
In general terms: Time-resolved FRET reads energy transfer from a long-lived donor to a nearby acceptor.

In general, GI50 refers to the concentration giving 50% growth inhibition. The low end stands for more potent growth inhibition, the high end for less potent growth inhibition. As usually defined, the % inhibition is how much of the control response was suppressed. A high value points to a response far below the control.

In turn, `Cc1c(Nc2ccc(I)cc2F)c(NS(=O)(=O)C2CC2)c2n(c1=O)CCS2` [Example 19A, Cyclopropanesulfonic acid [7-(2-fluoro-4-iodo-phenylamino)-6-methyl-5-oxo-2,3-dihydro-5H-thiazolo[3,2-a]pyridin-8-yl]-amide] yielded a 50% growth inhibitory concentration (GI50) in the assay on A375 cells of 0.3 nM. The “% inhibition” value in assay [1] is 100%. In the assay on A375 cells, `Cc1c(Nc2ccc(I)cc2F)c(NS(=O)(=O)C2(CO)CC2)c2n(c1=O)CCO2` [Example 11A, 1-Hydroxymethyl-cyclopropanesulfonic acid [7-(2-fluoro-4-iodo-phenylamino)-6-methyl-5-oxo-2,3-dihydro-5H-oxazolo[3,2-a]pyridin-8-yl]-amide] came in with a concentration for 50% growth inhibition (GI50) of 20 nM. In addition, the “% inhibition” value in assay [1] amounted to 100%. `Cc1c(Nc2ccc(I)cc2F)c(NS(=O)(=O)C2(CCCO)CC2)c2n(c1=O)CCO2` [Example 12A, 1-(3-Hydroxy-propyl)-cyclopropanesulfonic acid [7-(2-fluoro-4-iodo-phenylamino)-6-methyl-5-oxo-2,3-dihydro-5H-oxazolo[3,2-a]pyridin-8-yl]-amide] came in with a GI50 with A375 cells of 11 nM. In addition, the “% inhibition” value in assay [1] was found to be 100%. Consider `Cc1c(Nc2ccc(I)cc2F)c(NS(=O)(=O)C2(CCO)CC2)c2n(c1=O)CCO2` [Example 9A, 1-(2-Hydroxy-ethyl)-cyclopropanesulfonic acid [7-(2-fluoro-4-iodo-phenylamino)-6-methyl-5-oxo-2,3-dihydro-5H-oxazolo[3,2-a]pyridin-8-yl]-amide], for which halving of growth with A375 cells (GI50) required 19 nM. The “% inhibition” value in assay [1] came out at 100%. As to `Cc1c(Nc2ccc(I)cc2F)c(NS(=O)(=O)C2CC2)c2n(c1=O)CCO2` [Example 7A, Cyclopropanesulfonic acid [7-(2-fluoro-4-iodo-phenylamino)-6-methyl-5-oxo-2,3-dihydro-5H-oxazolo[3,2-a]pyridin-8-yl]-amide], in the assay on A375 cells, halving of growth (GI50) required 26 nM. The “% inhibition” value in assay [1] is on record as 99%. In the assay on A375 cells, `Cc1c(Nc2ccc(I)cc2F)c(NS(=O)(=O)C2(CC(O)CO)CC2)c2n(c1=O)CCO2` (stereo not drawn) [Example 10A, 1-(2,3-Dihydroxy-propyl)-cyclopropanesulfonic acid [7-(2-fluoro-4-iodo-phenylamino)-6-methyl-5-oxo-2,3-dihydro-5H-oxazolo[3,2-a]pyridin-8-yl]-amide] returned a GI50 of 33 nM. Besides, the “% inhibition” value in assay [1] is recorded as 100%. On to `Cc1c(Nc2ccc(I)cc2F)c(NS(=O)(=O)C2CCCC2)c2n(c1=O)CCS2` [Example 24A, Cyclopentanesulfonic acid [7-(2-fluoro-4-iodo-phenylamino)-6-methyl-5-oxo-2,3-dihydro-5H-thiazolo[3,2-a]pyridin-8-yl]-amide], for which growth in the assay with A375 cells was halved (GI50) at 192 nM. Moreover, the “% inhibition” value in assay [1] was found to be 100%.

Turning to `Cc1c(Nc2ccc(I)cc2F)c(NS(=O)(=O)C2CC(O)C2)c2n(c1=O)CCN2` (stereo not drawn) [Example 6A, 3-Hydroxy-cyclobutanesulfonic acid [7-(2-fluoro-4-iodo-phenylamino)-6-methyl-5-oxo-1,2,3,5-tetrahydro-imidazo[1,2-a]pyridin-8-yl]-amide], the GI50 in the assay on A375 cells was determined as 1380 nM. In assay [1], the “% inhibition” value came out at 100%.

As to `Cc1c(Nc2ccc(I)cc2F)c(NS(=O)(=O)CCC2COC2)c2n(c1=O)CCO2` [Example 17A, N-(7-(2-fluoro-4-iodophenylamino)-6-methyl-5-oxo-3,5-dihydro-2H-oxazolo[3,2-a]pyridin-8-yl)-2-(oxetan-3-yl)ethanesulfonamide], the GI50 in the assay on A375 cells was 1730 nM. On to `Cc1c(Nc2ccc(Br)cc2F)c(NS(=O)(=O)C2CC2)c2n(c1=O)CCN2Cc1ccccc1` [Example 1A, Cyclopropanesulfonic acid [1-benzyl-7-(4-bromo-2-fluoro-phenylamino)-6-methyl-5-oxo-1,2,3,5-tetrahydro-imidazo[1,2-a]pyridin-8-yl]-amide], for which the “% inhibition” value in assay [1] was 70%.

(Values after patent US8466289B2, “Heterocyclic sulfonamide derivatives” (Novartis AG, priority 2009, dated 2013).)
